According to the NIST ThermoML archive (doi:10.1016/j.jct.2010.04.013):

Experiment: mn = molality of the nth substance listed, in mol/kg
Settings: 101 kPa, Liquid; for mass density: Vibrating tube method; for speed of sound: Pulse-echo method

[Ba+2].[O-][Cl+3]([O-])([O-])[O-].[O-][Cl+3]([O-])([O-])[O-] [barium perchlorate] + CO
Settings | mass density, 283.15 K [kg/m3] | mass density, 288.15 K [kg/m3] | mass density, 293.15 K [kg/m3] | mass density, 298.15 K [kg/m3] | mass density, 303.15 K [kg/m3] | mass density, 308.15 K [kg/m3] | mass density, 313.15 K [kg/m3] | speed of sound, 298.15 K [m/s]
m1 = 0.04405 | 811.658 | 806.964 | 802.257 | 797.534 | 792.793 | 788.031 | 783.24 | 1104.8
m1 = 0.05789 | 815.181 | 810.483 | 805.768 | 801.038 | 796.29 | 791.514 | 786.709 | 1105.8
m1 = 0.07152 | 818.62 | 813.919 | 809.196 | 804.461 | 799.707 | 794.928 | 790.115 | 1106.8
m1 = 0.08565 | 822.272 | 817.565 | 812.834 | 808.092 | 803.33 | 798.541 | 793.738 | –
m1 = 0.09942 | 825.796 | 821.081 | 816.346 | 811.597 | 806.83 | 802.029 | 797.22 | 1108.7
m1 = 0.1123 | 829.125 | 824.405 | 819.663 | 814.91 | 810.139 | 805.341 | 800.51 | 1109.7
m1 = 0.1401 | 836.397 | 831.665 | 826.908 | 822.143 | 817.357 | 812.546 | 807.7 | 1111.7
m1 = 0.1665 | 843.399 | 838.652 | 833.885 | 829.105 | 824.3 | 819.488 | 814.642 | 1113.2
m1 = 0.1922 | 850.26 | 845.49 | 840.721 | 835.928 | 831.119 | 826.278 | 821.422 | 1115.2
m1 = 0.2169 | 856.95 | 852.176 | 847.385 | 842.583 | 837.763 | 832.919 | 828.046 | 1116.9
m1 = 0.2417 | 863.79 | 859.009 | 854.206 | 849.387 | 844.546 | 839.692 | 834.813 | 1118.6

[Ba+2].[O-][Cl+3]([O-])([O-])[O-].[O-][Cl+3]([O-])([O-])[O-] [barium perchlorate] + C[S+](C)[O-]
Settings | mass density, 293.15 K [kg/m3] | mass density, 298.15 K [kg/m3] | mass density, 303.15 K [kg/m3] | mass density, 313.15 K [kg/m3] | mass density, 323.15 K [kg/m3] | mass density, 333.15 K [kg/m3] | speed of sound, 298.15 K [m/s]
m1 = 0.03102 | 1108.57 | 1103.55 | 1098.53 | 1088.51 | 1078.49 | 1068.47 | –
m1 = 0.04247 | 1111.68 | 1106.66 | 1101.64 | 1091.63 | 1081.62 | 1071.61 | 1485.2
m1 = 0.05458 | 1114.98 | 1109.97 | 1104.95 | 1094.94 | 1084.94 | 1074.94 | 1485.5
m1 = 0.06931 | 1119.03 | 1114.02 | 1109 | 1099 | 1089.01 | 1079.01 | 1486
m1 = 0.08432 | 1123.18 | 1118.17 | 1113.16 | 1103.17 | 1093.18 | 1083.2 | 1486.3
m1 = 0.1063 | 1129.31 | 1124.31 | 1119.3 | 1109.32 | 1099.34 | 1089.37 | 1486.8
m1 = 0.1359 | 1137.67 | 1132.66 | 1127.67 | 1117.69 | 1107.73 | 1097.78 | 1487.8
m1 = 0.1651 | 1146.06 | 1141.06 | 1136.07 | 1126.1 | 1116.15 | 1106.21 | 1488.5
m1 = 0.191 | 1153.55 | 1148.55 | 1143.57 | 1133.61 | 1123.67 | 1113.74 | 1489.3
m1 = 0.222 | 1162.7 | 1157.71 | 1152.72 | 1142.77 | 1132.84 | 1122.92 | 1490.4
m1 = 0.25 | 1171.03 | 1166.04 | 1161.06 | 1151.11 | 1141.21 | 1131.31 | 1491.5

O=S(=O)([O-])C(F)(F)F.O=S(=O)([O-])C(F)(F)F.[Be+2] [beryllium 1,1,1-trifluoromethanesulfonate] + CO
Settings | mass density, 283.15 K [kg/m3] | mass density, 288.15 K [kg/m3] | mass density, 293.15 K [kg/m3] | mass density, 298.15 K [kg/m3] | mass density, 303.15 K [kg/m3] | mass density, 308.15 K [kg/m3] | mass density, 313.15 K [kg/m3] | speed of sound, 298.15 K [m/s]
m1 = 0.05456 | 809.901 | 805.251 | 800.58 | 795.899 | 791.207 | 786.489 | 781.742 | 1105.4
m1 = 0.06745 | 812.098 | 807.453 | 802.786 | 798.111 | 793.424 | 788.711 | 783.973 | 1106.2
m1 = 0.08472 | 815.041 | 810.402 | 805.745 | 801.074 | 796.384 | 791.686 | 786.956 | 1107.2
m1 = 0.1077 | 818.969 | 814.336 | 809.691 | 805.032 | 800.359 | 795.664 | 790.942 | 1108.5
m1 = 0.1249 | 821.918 | 817.294 | 812.65 | 807.996 | 803.329 | 798.644 | 793.931 | 1109.5
m1 = 0.1421 | 824.885 | 820.267 | 815.629 | 810.983 | 806.316 | 801.638 | 796.936 | 1110.3
m1 = 0.1594 | 827.866 | 823.252 | 818.621 | 813.979 | 809.325 | 804.652 | 799.953 | 1111.1
m1 = 0.177 | 830.948 | 826.34 | 821.715 | 817.077 | 812.425 | 807.764 | 803.073 | 1111.9

O=S(=O)([O-])C(F)(F)F.O=S(=O)([O-])C(F)(F)F.[Be+2] [beryllium 1,1,1-trifluoromethanesulfonate] + C[S+](C)[O-]
Settings | mass density, 293.15 K [kg/m3] | mass density, 298.15 K [kg/m3] | mass density, 303.15 K [kg/m3] | mass density, 313.15 K [kg/m3] | mass density, 323.15 K [kg/m3] | mass density, 333.15 K [kg/m3] | speed of sound, 298.15 K [m/s]
m1 = 0.01855 | 1103.22 | 1098.21 | 1093.19 | 1083.18 | 1073.16 | 1063.14 | –
m1 = 0.0259 | 1104.42 | 1099.41 | 1094.4 | 1084.39 | 1074.38 | 1064.37 | 1484.1
m1 = 0.03349 | 1105.65 | 1100.64 | 1095.64 | 1085.64 | 1075.64 | 1065.64 | 1484.1
m1 = 0.0433 | 1107.25 | 1102.25 | 1097.25 | 1087.27 | 1077.27 | 1067.29 | 1484.1
m1 = 0.0531 | 1108.84 | 1103.84 | 1098.85 | 1088.88 | 1078.9 | 1068.92 | 1484.1
m1 = 0.06815 | 1111.3 | 1106.31 | 1101.33 | 1091.37 | 1081.41 | 1071.46 | 1484.1
m1 = 0.08651 | 1114.3 | 1109.32 | 1104.35 | 1094.41 | 1084.48 | 1074.55 | 1484.1
m1 = 0.1051 | 1117.36 | 1112.4 | 1107.44 | 1097.52 | 1087.61 | 1077.69 | 1484.1
m1 = 0.1237 | 1120.43 | 1115.48 | 1110.52 | 1100.63 | 1090.75 | 1080.86 | 1484.1
m1 = 0.1446 | 1123.89 | 1118.95 | 1114.01 | 1104.14 | 1094.27 | 1084.41 | 1484.1
m1 = 0.1621 | 1126.82 | 1121.88 | 1116.95 | 1107.09 | 1097.24 | 1087.39 | 1484.1

[Ca+2].[O-][Cl+3]([O-])([O-])[O-].[O-][Cl+3]([O-])([O-])[O-] [calcium diperchlorate] + CO
Settings | mass density, 283.15 K [kg/m3] | mass density, 288.15 K [kg/m3] | mass density, 293.15 K [kg/m3] | mass density, 298.15 K [kg/m3] | mass density, 303.15 K [kg/m3] | mass density, 308.15 K [kg/m3] | mass density, 313.15 K [kg/m3] | speed of sound, 298.15 K [m/s]
m1 = 0.04342 | 808.441 | 803.768 | 799.077 | 794.369 | 789.647 | 784.898 | 780.124 | 1107.2
m1 = 0.05807 | 811.094 | 806.419 | 801.722 | 797.014 | 792.292 | 787.544 | 782.768 | –
m1 = 0.07009 | 813.264 | 808.591 | 803.899 | 799.189 | 794.463 | 789.714 | 784.937 | 1110.9
m1 = 0.08408 | 815.804 | 811.129 | 806.432 | 801.724 | 796.994 | 792.241 | 787.454 | 1112.6
m1 = 0.09795 | 818.319 | 813.643 | 808.941 | 804.234 | 799.508 | 794.756 | 789.975 | 1114.4
m1 = 0.1113 | 820.755 | 816.078 | 811.379 | 806.668 | 801.938 | 797.181 | 792.393 | 1116.1
m1 = 0.1396 | 825.906 | 821.224 | 816.525 | 811.81 | 807.078 | 802.323 | 797.541 | 1119.6
m1 = 0.1663 | 830.829 | 826.145 | 821.443 | 816.722 | 811.986 | 807.224 | 802.43 | 1123
m1 = 0.1921 | 835.646 | 830.963 | 826.254 | 821.535 | 816.796 | 812.035 | 807.248 | 1126.7
m1 = 0.2177 | 840.443 | 835.754 | 831.044 | 826.321 | 821.577 | 816.812 | 812.023 | 1129.5
m1 = 0.2427 | 845.09 | 840.401 | 835.687 | 830.964 | 826.212 | 821.445 | 816.651 | 1132.9
m1 = 0.269 | 850.052 | 845.358 | 840.641 | 835.911 | 831.162 | 826.391 | 821.596 | 1136.3
